Reference: ChEMBL document CHEMBL1154131, “Bioactive diterpenes and other constituents of Croton steenkampianus” (J Nat Prod, 2008)
In brackets after ≈: the same amount, converted by molar mass.

Experiments:
Vero = test: Cytotoxicity against african green monkey Vero cells by MTT assay; format: cell-based; conditions: Chlorocebus sabaeus
Plasmodium falciparum [1] = test: Antiplasmodial activity against chloroquine-resistant Plasmodium falciparum Dd2; format: functional, organism-based
Plasmodium falciparum [2] = test: Antiplasmodial activity against chloroquine-susceptible Plasmodium falciparum D10; format: functional, organism-based

Row | IC50 (Plasmodium falciparum [2]) | Structure (SMILES) | IC50 (Vero) | IC50 (Plasmodium falciparum [1])
1 |  | CCN(CC)CCCC(C)Nc1ccnc2cc(Cl)ccc12 (stereo not given) [CHLOROQUINE] | 48.5 µg/mL (≈ 152 µM) | 
2 |  | O=c1c(O)c(-c2ccc(O)c(O)c2)oc2cc(O)cc(O)c12 [QUERCETIN] | 110 µg/mL (≈ 364 µM) | 2.4 µg/mL (≈ 7.94 µM)
3 | 1.1 µg/mL (≈ 3.48 µM) | COc1ccc(-c2oc3cc(O)cc(O)c3c(=O)c2O)cc1O [TAMARIXETIN] | 170 µg/mL (≈ 538 µM) | 
